This note sets out measurements from patent US6117845A, “C-linked analogs of N-(4-hydroxyphenyl) retinamide” (Ohio State University Research Foundation, priority 1999, dated 2000).

Series [1] deals with MCF7 cells. The series is described as follows: Assay for cell growth inhibition, MCF-7 cells, 72 h. It counts as cell-based. The following applies: human mammary carcinoma MCF-7 cells, 0.1, 1 or 10 μM, FIG. 1. The method, then:
(§1) All-trans retinoic acid (atRA) was purchased from Eastman Kodak, Rochester, N.Y. Stock solutions were prepared in 100% ethanol and concentrations were determined on a Shimadzu UV-2100 spectrophotometer (4-HBR: λmax=380nm, ε=39,891; 4-HPR: λmax=365 nm, ε=47,900; atRA: λmax=340 nm, ε=45,300). Compound purity was assessed using a Waters HPLC-PDA with a 600E solvent delivery system using a Zorbax ODS, 250×4.6 mm, 5 micron column (Phenomenex, Torrance, Calif.). The column was equilibrated in 88% methanol/water with 10 mM ammonium acetate (flow rate of 1 ml/min). 4-HBR eluted at about 18 min., 4-HPR at about 12 min., and atRA at about 8 min with estimated purities of 96%, 100% and 100% respectively. […]
Cells (100,000 cells) were passed into a 25 cm^3 flask in 10 ml of medium. […] Two 20 μl aliquots were counted from each treatment group on a Nikon Diaphot 200 fluorescent microscope. Four out of five fields were counted on each side of the hemocytometer. Fluorescence was used to count the number of live cells and phase-contrast was used to count the number of total cells. The average number of live cells per field was divided by the total number of cells per field and expressed as a percentage of the control.
The antiproliferative activity of 4-HPR, 4-HBR, and atRA against MCF-7 human mammary tumor cell culture models was determined using the above-described protocol. […]

The subject of series [2] is serum retinol-binding protein (RBP). Kind of series: Serum retinol binding protein binding study (competition with tritiated all-trans retinol). The settings on record: human RBP 0.1 μg/μl, 250 nM all-trans-(3H)-ROL, 4° C., FIG. 3. The method, then:
RBP (human) was obtained commercially (Sigma). RBP (0.1 μg/μl) was incubated with 250 nM all-trans-(^3 H)-ROL (approx. 5 Ci/mmole) with and without competing ligands at 4° C. for 3 hours. Tritiated retinoid-labeled protein-containing extracts were treated with dextran-coated charcoal to remove unbound ligand before subjecting samples to sedimentation analysis on 5 to 20% sucrose density gradients. ^14 C-Labeled proteins were included with samples as internal sedimentation standards. Gradients were centrifuged at 257,000 g for 20 hours at 4° C. followed by fractionation and analysis of radioactivity.

Series [3] concerns LA1-15n cells. The series is described as follows: Assay for cell growth inhibition, LA1-15n cells, 48 h. It counts as cell-based. The following applies: human neuroblastoma LA1-15n cells, 0.1, 1 or 10 μM, FIG. 2. As to the method: as §1, with “respectively. Retinoids were blanketed with argon and stored at -70° C. until use.” for “respectively.”
Cells (100,000 cells) were passed into a 25 cm^3 flask in 10 ml of medium. […] Two 20 μl aliquots were counted from each treatment group on a Nikon Diaphot 200 fluorescent microscope. Four out of five fields were counted on each side of the hemocytometer. Fluorescence was used to count the number of live cells and phase-contrast was used to count the number of total cells. The average number of live cells per field was divided by the total number of cells per field and expressed as a percentage of the control. […]

Series [4] in a line: Acid stability of 4-HBR. The settings on record: 0.1 N methanolic HCl at 37° C. for 2 hours. It counts as physicochemical.

`CC1=C(/C=C/C(C)=C/C=C/C(C)=C/C(=O)Cc2ccc(O)cc2)C(C)(C)CCC1` [compound 16, 4-hydroxybenzyl retinone]: the “growth inhibition of MCF7 cells (viability, live cells as percentage of control)” value in series [1] is on record as “inhibits the growth of MCF7 cells in a dose-dependant fashion”. In series [2], the “affinity for serum RBP relative to 4-HPR” value is on record as “binds to serum RBP with less affinity than does 4-HPR”. Also, in series [3], the “growth inhibition of LA1-15n cells (viability, live cells as percentage of control)” value is “inhibits the growth of LA1-15n cells in a dose-dependant fashion”. Besides, in series [4], the “stability under acidic conditions” value is recorded as “remained intact”.
